{"source": "ChEMBL document CHEMBL1152405", "about": "“Bis-anthracenyl isoxazolyl amides have enhanced anticancer activity” (Bioorg Med Chem Lett, 2009)", "type_in_all_cases": "functional", "key": {"[1]": {"assay": "Growth inhibition of human Hs 578T cells after 24 hrs by MTT assay"}, "U-251": {"test_system": "U-251", "assay": "Growth inhibition of human U251 cells at 10 uM after 24 hrs by MTT assay relative to control", "parameters": "scale not given: the % may be the effect or the level left"}, "SF-268": {"test_system": "SF-268", "assay": "Growth inhibition of human SF268 cells after 24 hrs by MTT assay", "details": "SF-268, 24 h"}, "MOLT-4 [2]": {"test_system": "MOLT-4", "assay": "Growth inhibition of human MOLT4 cells after 24 hrs by MTT assay", "details": "MOLT-4, 24 h"}, "MCF7": {"test_system": "MCF7", "assay": "Growth inhibition of human MCF7 cells after 24 hrs by MTT assay", "details": "MCF7, 24 h"}, "MOLT-4 [3]": {"test_system": "MOLT-4", "assay": "Growth inhibition of human MOLT4 cells at 10 uM after 24 hrs by MTT assay relative to control", "parameters": "scale not given: the % may be the effect or the level left"}, "786-0": {"test_system": "786-0", "assay": "Growth inhibition of human 786-0 cells at 10 uM after 24 hrs by MTT assay relative to control", "parameters": "scale not given: the % may be the effect or the level left"}, "SK-MEL-5 [4]": {"test_system": "SK-MEL-5", "assay": "Growth inhibition of human SK-MEL-5 cells after 24 hrs by MTT assay", "details": "SK-MEL-5, 24 h"}, "OVCAR-3": {"test_system": "OVCAR-3", "assay": "Growth inhibition of human OVCAR-3 cells at 10 uM after 24 hrs by MTT assay relative to control", "parameters": "scale not given: the % may be the effect or the level left"}, "SK-MEL-5 [5]": {"test_system": "SK-MEL-5", "assay": "Growth inhibition of human SK-MEL-5 cells at 10 uM after 24 hrs by MTT assay relative to control", "parameters": "scale not given: the % may be the effect or the level left"}, "SR": {"test_system": "SR", "assay": "Growth inhibition of human SR cells after 24 hrs by MTT assay"}, "[6]": {"details": "read-out: LC50 (the source's name)"}, "[7]": {"details": "read-out: pLC50 (the source's name) (converted)"}}, "data": [{"smiles": "Cc1onc(-c2c3ccccc3c(Cl)c3ccccc23)c1C(=O)Nc1cc(C(=O)NCCCN(C)CCCNC(=O)c2cc(NC(=O)c3c(-c4c5ccccc5c(Cl)c5ccccc45)noc3C)cn2C)n(C)c1", "values": [{"measurement": "TGI", "setting": "[1]", "result": 2.94, "unit": "µM"}, {"measurement": "GI50", "setting": "[1]; read-out: GI50", "result": 1.15, "unit": "µM"}, {"measurement": "GI50", "setting": "[1]; read-out: pGI50 (converted)", "result": 1.15, "unit": "µM"}, {"measurement": "Activity", "setting": "U-251", "result": -100, "unit": "%"}, {"measurement": "TGI", "setting": "SF-268", "result": 2.9, "unit": "µM"}, {"measurement": "GI50", "setting": "SF-268; read-out: GI50", "result": 1.39, "unit": "µM"}, {"measurement": "GI50", "setting": "SF-268; read-out: pGI50 (converted)", "result": 1.38, "unit": "µM"}, {"measurement": "TGI", "setting": "MOLT-4 [2]", "result": 2.43, "unit": "µM"}, {"measurement": "GI50", "setting": "MOLT-4 [2]; read-out: GI50", "result": 0.615, "unit": "µM"}, {"measurement": "CC50", "setting": "MOLT-4 [2]; [6]", "result": 7.96, "unit": "µM"}, {"measurement": "GI50", "setting": "MOLT-4 [2]; read-out: pGI50 (converted)", "result": 0.617, "unit": "µM"}, {"measurement": "CC50", "setting": "MOLT-4 [2]; [7]", "result": 7.94, "unit": "µM"}, {"measurement": "TGI", "setting": "MCF7", "result": 2.4, "unit": "µM"}, {"measurement": "GI50", "setting": "MCF7; read-out: GI50", "result": 1.18, "unit": "µM"}, {"measurement": "CC50", "setting": "MCF7; [6]", "result": 4.9, "unit": "µM"}, {"measurement": "GI50", "setting": "MCF7; read-out: pGI50 (converted)", "result": 1.17, "unit": "µM"}, {"measurement": "CC50", "setting": "MCF7; [7]", "result": 4.9, "unit": "µM"}, {"measurement": "Activity", "setting": "MOLT-4 [3]", "result": -100, "unit": "%"}, {"measurement": "Activity", "setting": "786-0", "result": -81.64, "unit": "%"}, {"measurement": "TGI", "setting": "SK-MEL-5 [4]", "result": 2.79, "unit": "µM"}, {"measurement": "GI50", "setting": "SK-MEL-5 [4]; read-out: GI50", "result": 1.48, "unit": "µM"}, {"measurement": "CC50", "setting": "SK-MEL-5 [4]; [6]", "result": 5.28, "unit": "µM"}, {"measurement": "GI50", "setting": "SK-MEL-5 [4]; read-out: pGI50 (converted)", "result": 1.48, "unit": "µM"}, {"measurement": "CC50", "setting": "SK-MEL-5 [4]; [7]", "result": 5.25, "unit": "µM"}, {"measurement": "Activity", "setting": "OVCAR-3", "result": -100, "unit": "%"}, {"measurement": "Activity", "setting": "SK-MEL-5 [5]", "result": -100, "unit": "%"}, {"measurement": "LC50", "setting": "SR", "result": 100, "unit": "µM"}, {"measurement": "TGI", "setting": "SR", "result": 2.03, "unit": "µM"}, {"measurement": "GI50", "setting": "SR; read-out: GI50", "result": 0.394, "unit": "µM"}, {"measurement": "GI50", "setting": "SR; read-out: pGI50 (converted)", "result": 0.398, "unit": "µM"}, {"measurement": "CC50", "setting": "SR; [7]", "result": "> 100", "unit": "µM"}]}]}
